Source: the supplement of paper PMC4862054
Values joined by “and” are separate entries in the source; they are usually repeats but may differ in a detail not shown here. Identical values can stand only once.

What was measured:
Details in all cases: incubation time: 72 h
CAL-51 [1] = test: normalised viability (% of control), CellTiter-Blue; higher = more viable cells (about 100 = DMSO control)
Procedure: (§1)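 DSRT, CellTiter-Blue viability, 72 h incubation. Signal is normalised to DMSO and benzethonium chloride controls. Value is the normalised response at dose 3.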

MDA-MB-231 [2] = test: as above
Procedure: as §1

BT-474 = test: drug sensitivity score (DSS), CellTox Green (DSS (AUC-based score)); higher = stronger drug effect (viability inhibition or cytotoxicity); extreme values may be limits of the assay
In short: (§2)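 In 384-well plates, compound was laid out at 5 concentrations in 10-fold steps over a 10,000-fold range specific to each compound, and breast cancer cell lines were seeded on top in 20 µl suspension for a 72 h incubation. CellTox Green fluorescence and then CellTiter-Glo luminescence were read, and each plate was normalised to 0.1 % DMSO and a positive kill control. The drug sensitivity score was calculated from the area under the fitted dose-response curve.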

BT-549 = test: as above
In short: as §2

CAL-120 = test: as above
In short: as §2

CAL-148 = test: as above
In short: as §2

CAL-51 [3] = test: as above
In short: as §2

CAL-85-1 = test: as above
In short: as §2

DU-4475 = test: as above
In short: as §2

HCC1143 = test: as above
In short: as §2

HCC1599 = test: as above
In short: as §2

HCC1937 = test: as above
In short: as §2

HDQ-P1 = test: as above
In short: as §2

Hs578T = test: as above
In short: as §2

MCF-10A = test: as above
In short: as §2

MDA-MB-231 [4] = test: as above
In short: as §2

MDA-MB-436 = test: as above
In short: as §2

MDA-MB-453 = test: as above
In short: as §2

MDA-MB-468 = test: as above
In short: as §2

MFM-223 = test: as above
In short: as §2

SMILES | normalised viability (CAL-51 [1]; 1 nM) [%] | normalised viability (MDA-MB-231 [2]; 10 nM) [%] | drug sensitivity score (BT-474) | drug sensitivity score (BT-549) | drug sensitivity score (CAL-120) | drug sensitivity score (CAL-148) | drug sensitivity score (CAL-51 [3]) | drug sensitivity score (CAL-85-1) | drug sensitivity score (DU-4475) | drug sensitivity score (HCC1143) | drug sensitivity score (HCC1599) | drug sensitivity score (HCC1937) | drug sensitivity score (HDQ-P1) | drug sensitivity score (Hs578T) | drug sensitivity score (MCF-10A) | drug sensitivity score (MDA-MB-231 [4]) | drug sensitivity score (MDA-MB-436) | drug sensitivity score (MDA-MB-453) | drug sensitivity score (MDA-MB-468) | drug sensitivity score (MFM-223) | normalised viability (CAL-51 [1]; 10 nM) | normalised viability (MDA-MB-231 [2]; 100 nM) | normalised viability (CAL-51 [1]; 0.99 nM) [%] | normalised viability (MDA-MB-231 [2]; 9.9 nM) [%]
Cc1cc2c(F)c(Oc3ncnn4cc(OC[C@@H](C)O)c(C)c34)ccc2[nH]1 [Brivanib] | 91.8 | 98.1 | 0 | 0 | 0 | 0 | 0 | 0.499 | 0 | 0 | 0 | 0 | 0 | 0 | 0 | 0 | 2.68 | 0 | 0 | 0 |  |  |  | 
CC(C)C[C@H](NC(=O)[C@H](CCc1ccccc1)NC(=O)CN1CCOCC1)C(=O)N[C@@H](Cc1ccccc1)C(=O)N[C@@H](CC(C)C)C(=O)[C@@]1(C)CO1 [Carfilzomib] | 106 | 28.1 | 8.3 | 8.43 | 17.2 | 19 | 24.4 | 24.8 | 0 | 0 | 0 | 18.4 | 19.1 | 16.7 | 9.99 | 24.1 | 19.2 | 0 | 37.2 | 14.4 |  |  |  | 
Nc1nc(Cl)nc2c1ncn2[C@@H]1O[C@H](CO)[C@@H](O)[C@@H]1F [Clofarabine] |  |  | 0 | 0 | 0 | 7.09 | 16.7 | 3.72 | 0 | 0 | 0 | 0 | 0 | 0 | 0 | 0 | 0 | 0 | 0.395 | 0 | 111% | 64.2% |  | 
CCN(CC)CCOc1ccc(C(=C(Cl)c2ccccc2)c2ccccc2)cc1 [Clomifene] |  |  | 5.14 | 0 | 1.48 | 0 | 0 | 2.27 | 1.43 | 0 | 1.4 | 8.71 |  | 7.35 | 3.53 | 8.18 | 0 | 2.83 | 0 | 9.19 | 97.5% | 101% |  | 
C[C@@H]1C[C@H]2[C@@H]3CCC4=CC(=O)C=C[C@]4(C)[C@@]3(F)[C@@H](O)C[C@]2(C)[C@@]1(O)C(=O)CO [Dexamethasone] |  |  | 0 | 0 | 0 | 0 | 0 | 0 | 0 | 0 | 0 | 0 | 0 | 1.94 | 3.19 | 0 | 0 | 0 | 0 | 0 | 94.9% | 121% |  | 
CC(C)C(=O)Nc1ccc([N+](=O)[O-])c(C(F)(F)F)c1 [Flutamide] |  |  | 0 | 0 | 0 |  | 0 | 0 | 0 | 0 | 0 | 0 | 0 | 0 | 0 | 0 | 0 | 0 | 0 | 0 | 112% | 129% |  | 
COc1cc2c(Oc3ccc(NC(=O)C4(C(=O)Nc5ccc(F)cc5)CC4)cc3F)ccnc2cc1OCCCN1CCOCC1 [Foretinib] | 93.2 | 95.1 | 0 | 0 | 0 | 1.71 | 4.29 | 0 | 0 | 1.04 | 0 | 0 | 0 | 2.65 | 0 | 10.4 | 0 | 0 | 3.1 | 0 |  |  |  | 
O=NN(CCCl)C(=O)NC1CCCCC1 [Lomustine] |  |  | 0 | 0 | 0 | 0 | 0 | 0 | 0 | 0 | 0 | 0 | 0 | 0 | 0 |  | 0 | 0 | 0 | 0 | 115% | 100% |  | 
O=C(O)CC[C@H]1CC[C@@](c2cc(F)ccc2F)(S(=O)(=O)c2ccc(Cl)cc2)CC1 [MK-0752] | 96.3 | 98 | 0 | 0 | 0 |  | 0 | 1.74 | 0 | 0 | 0 | 0 | 0 | 0 | 0 | 0 | 0 | 1.23 | 0 | 0 |  |  |  | 
NC1(c2ccc(-c3nc4ccn5c(=O)[nH]nc5c4cc3-c3ccccc3)cc2)CCC1 [MK-2206] | 100 | 104 | 0 | 0 | 0 | 3.64 | 0 | 0 | 0 | 0 | 0 | 0 | 0 | 0 | 0 | 0 | 0 | 0 | 0 | 0 |  |  |  | 
NC(=O)c1cccc2cn(-c3ccc([C@@H]4CCCNC4)cc3)nc12 [MK-4827] |  |  | 0 | 0 | 0 | 0 | 3.35 | 2.02 | 0 | 0 | 0 |  | 0 | 0 | 0 | 0 | 0 | 0 | 0 | 0 | 110% | 97.5% |  | 
N[C@@H](Cc1ccc(N(CCCl)CCCl)cc1)C(=O)O [Melphalan] |  |  | 18.1 | 13.4 | 9.72 | 18.5 | 21.7 | 18.1 | 11.5 | 7.18 | 11.8 | 15.4 | 18.4 | 12.4 | 19.3 | 23.9 | 8.42 | 16.9 | 19.7 | 16.5 |  |  | 104 | 99.8
O=C(c1cc(Cc2n[nH]c(=O)c3ccccc23)ccc1F)N1CCN(C(=O)C2CC2)CC1 [Olaparib] |  |  | 0 | 0 | 0 | 0 | 3.38 | 0 | 0 | 0 | 0 | 0 |  | 0 | 0 | 1.54 | 8.45 | 0 | 0 | 0 | 101% | 76.5% |  | 
CO[C@H](C(=O)[C@@H](O)[C@@H](C)O)[C@@H]1Cc2cc3cc(O[C@H]4C[C@@H](O[C@@H]5C[C@@H](O)[C@H](O)[C@@H](C)O5)[C@H](O)[C@@H](C)O4)c(C)c(O)c3c(O)c2C(=O)[C@H]1O[C@H]1C[C@@H](O[C@@H]2C[C@@H](O)[C@@H](O[C@@H]3C[C@](C)(O)[C@H](O)[C@@H](C)O3)[C@@H](C)O2)[C@H](O)[C@@H](C)O1 [Plicamycin] |  |  | 0 | 0 | 0 | 0 | 7.69 | 1.48 | 0 | 0 | 0 | 0 | 0 | 1.28 | 6.07 | 0 | 0 | 1.33 | 9.57 | 0 | 98.2% and 109% | 34.4% and 28.9% |  | 
CO[C@H]1C[C@@H]2CC[C@@H](C)[C@@](O)(O2)C(=O)C(=O)N2CCCC[C@H]2C(=O)O[C@H]([C@H](C)C[C@@H]2CC[C@@H](O)[C@H](OC)C2)CC(=O)[C@H](C)/C=C(\C)[C@@H](O)[C@@H](OC)C(=O)[C@H](C)C[C@H](C)/C=C/C=C/C=C/1C [Sirolimus] | 62.6 | 67.7 | 0 | 0 | 0 | 0 | 0 | 0 | 0 | 0 | 0 | 1.4 | 0 | 0 | 0 | 0 | 0 | 0 | 0 | 0 |  |  |  | 
CN1CCN(c2nc(C3=C(c4c[nH]c5ccccc45)C(=O)NC3=O)c3ccccc3n2)CC1 [Sotrastaurin] |  |  | 0 | 0 | 0 |  | 0 | 0 | 0 | 0 | 0 | 0 | 0 | 0 | 0 | 0 | 0 | 0 | 0 | 0 | 88.2% | 99.4% |  | 
CC/C(=C(\c1ccccc1)c1ccc(OCCN(C)C)cc1)c1ccccc1 [Tamoxifen] |  |  | 4.12 | 0 | 0 | 0 | 0 | 1.12 | 0 | 0 | 0 | 17.1 | 0 | 0 | 0 | 3.47 | 1.29 | 1.55 | 3.42 | 0 | 92% | 91% |  | 
